Patent US20070134261A1, “Effectors of innate immunity” (priority 2001, published 2007)
Residues, ends and D or L forms follow the SMILES beside them.

Test system: A549 human epithelial cell line
Assay: Polynucleotide array (Human Operon) of A549 cells incubated with E. coli O111:B4 LPS with or without peptide
Assay type: cell-based
Settings: 50 μg/ml, 4 h
Experimental: The A549 human epithelial cell line was maintained in DMEM (Gibco) supplemented with 10% fetal bovine serum (FBS, Medicorp). […] Total RNA was isolated using RNAqueous (Ambion, Austin, Tex.). […] DNA contamination was removed with DNA-free kit, Ambion).
A “homemade” program was used to remove background. The program calculates the bottom 10% intensity for each subgrid and subtracts this for each grid.
Peptide (50 μg/ml) and LPS (0.1 μg/ml) or LPS alone was incubated with the A549 cells for 4 h and the RNA was isolated. Five μg total RNA was used to make Cy3/Cy5 labeled cDNA probes and hybridized onto Human Operon arrays (PRHU04). The intensity of unstimulated cells is shown in the third column of Table 1. The “Ratio: LPS/control” column refers to the intensity of polynucleotide expression in LPS simulated cells divided by in the intensity of unstimulated cells. The “Ratio: LPS+ID 27/control” column refers to the intensity of polynucleotide expression in cells stimulated with LPS and peptide divided by unstimulated cells.
Peptide and LPS or LPS alone was incubated with the A549 cells for 4 h and the RNA was isolated. 5 μg total RNA was used to make Cy3/Cy5 labeled cDNA probes and hybridized onto Human Operon arrays (PRHU04). The intensity of unstimulated cells is shown in the third column of Table 2. The “Ratio: LPS/control” column refers to the intensity of polynucleotide expression in LPS-simulated cells divided by in the intensity of unstimulated cells. The other columns refer to the intensity of polynucleotide expression in cells stimulated with LPS and peptide divided by unstimulated cells.

[1] = AB007856 FEM-1-like death receptor binding protein

With CSCC[C@H](NC(=O)[C@H](CO)NC(=O)[C@@H](NC(=O)[C@H](CCCCN)NC(=O)[C@H](Cc1ccccc1)NC(=O)[C@H](CS)NC(=O)[C@H](CO)NC(=O)[C@H](CCCNC(=N)N)NC(=O)[C@@H](N)CCCCN)C(C)C)C(=O)N[C@@H](CCCNC(=N)N)C(=O)NCC(=O)N[C@H](C(=O)N[C@@H](CO)C(=O)N[C@@H](CCCNC(=N)N)C(=O)N[C@@H](CCCNC(=N)N)C(=O)N[C@@H](CCCNC(=N)N)C(=O)N[C@@H](CS)C(=O)N[C@@H](CCCCN)C(=O)O)C(C)C [SEQ ID NO: 27] (H-KRSCFKVSMRGVSRRRCK-OH; N-terminus and C-terminus assumed) the “Ratio: LPS + ID 27/control” value (AB007854 growth arrest-specific 7) was 2.2, the “Ratio: LPS + ID 27/control” value [1] was 0.6 and the “Ratio: LPS + ID/Ctrl” value [1] was 0.62. For the same molecule, the “Ratio: LPS + ID/Ctrl” value (AB007896 putative L-type neutral amino acid transporter) was 1.82, the “Ratio: LPS + ID/Ctrl” value (AB010894 BAI1-associated protein) was 1.38 and the “Ratio: LPS + ID 27/control” value (AB014569 KIAA0669 gene product) was 0.2. The “Ratio: LPS + ID/Ctrl” value (AB023198 KIAA0981 protein) was 0.43, the “Ratio: LPS + ID/Ctrl” value (AB037722 Unknown) was 0.30 and the “Ratio: LPS + ID 27/control” value (AB040057 serine/threonine protein kinase MASK) was 15.8. The “Ratio: LPS + ID/Ctrl” value (AC004849 Unknown) was 0.07, the “Ratio: LPS + ID 27/control” value (AF035309 proteasome 26S subunit ATPase 5) was 1.3 and the “Ratio: LPS + ID/Ctrl” value (AF095687 brain and nasopharyngeal carcinoma susceptibility protein) was 0.48. For the same molecule, the “Ratio: LPS + ID 27/control” value (AF112219 esterase D/formylglutathione hydrolase) was 1.1, the “Ratio: LPS + ID 27/control” value (AF131838 Unknown) was 1.4 and the “Ratio: LPS + ID 27/control” value (AF151047 hypothetical protein) was 1.0. The “Ratio: LPS + ID 27/control” value (AF189009 ubiquilin 2) was 1.3, the “Ratio: LPS + ID 27/control” value (AJ001403 mucin 5 subtype B tracheobronchial) was 15.9 and the “Ratio: LPS + ID 27/control” value (AK000087 hypothetical protein) was 1.0. The “Ratio: LPS + ID 27/control” value (AK000264 Unknown) was 0.6, the “Ratio: LPS + ID/Ctrl” value (AK000353 cytosolic ovarian carcinoma ag 1) was 1.02 and the “Ratio: LPS + ID 27/control” value (AK000353 cytosolic ovarian carcinoma antigen 1) was 1.0. The “Ratio: LPS + ID 27/control” value (AK000366 hypothetical protein) was 1.0, the “Ratio: LPS + ID 27/control” value (AK000562 hypothetical protein) was 0.6 and the “Ratio: LPS + ID 27/control” value (AK000869 hypothetical protein) was 2.3. The “Ratio: LPS + ID/Ctrl” value (AK000869 hypothetical protein) was 2.34, the “Ratio: LPS + ID/Ctrl” value (AK001239 hypothetical protein) was 1.27 and the “Ratio: LPS + ID/Ctrl” value (AK001440 hypothetical protein) was 0.43. For the same molecule, the “Ratio: LPS + ID 27/control” value (AK001569 hypothetical protein) was 1.2, the “Ratio: LPS + ID 27/control” value (AK001589 hypothetical protein) was 1.3 and the “Ratio: LPS + ID/Ctrl” value (AK001589 hypothetical protein) was 1.26. The “Ratio: LPS + ID/Ctrl” value (AK001904 hypothetical protein) was 5.93, the “Ratio: LPS + ID 27/control” value (AL031983 Unknown) was 5.1 and the “Ratio: LPS + ID/Ctrl” value (AL031983 Unknown) was 5.06. For the same molecule, the “Ratio: LPS + ID 27/control” value (AL050337 interferon gamma receptor 1) was 1.0, the “Ratio: LPS + ID 27/control” value (AL050348 Unknown) was 1.7 and the “Ratio: LPS + ID 27/control” value (AL096739 Unknown) was 0.5. For the same molecule, the “Ratio: LPS + ID/Ctrl” value (AL122111 hypothetical protein) was 0.21, the “Ratio: LPS + ID 27/control” value (AL137376 Unknown) was 0.6 and the “Ratio: LPS + ID/Ctrl” value (AL137376 Unknown) was 0.64. For the same molecule, the “Ratio: LPS + ID 27/control” value (AL137614 hypothetical protein) was 1.0, the “Ratio: LPS + ID 27/control” value (D14043 CD164 antigen_sialomucin) was 1.0 and the “Ratio: LPS + ID 27/control” value (D14539 myeloid/lymphoid or mixed-lineage leukemia translocated to 1) was 3.1. The “Ratio: LPS + ID 27/control” value (D42085 KIAA0095 gene product) was 1.2, the “Ratio: LPS + ID 27/control” value (D87451 ring finger protein 10) was 2.1 and the “Ratio: LPS + ID/Ctrl” value (D87451 ring finger protein) was 2.1. The “Ratio: LPS + ID 27/control” value (J03925 integrin_alpha M) was 4.2, the “Ratio: LPS + ID 27/control” value (J04058 electron-transfer-flavoprotein alpha polypeptide) was 1.2 and the “Ratio: LPS + ID 27/control” value (J04513 fibroblast growth factor 2) was 0.9. For the same molecule, the “Ratio: LPS + ID/Ctrl” value (J05068 transcobalamin 1) was 1.78, the “Ratio: LPS + ID 27/control” value (K02581 thymidine kinase 1 soluble) was 3.5 and the “Ratio: LPS + ID 27/control” value (L04510 ADP-ribosylation factor) was 1.4. For the same molecule, the “Ratio: LPS + ID/Ctrl” value (L04510 ADP-ribosylation factor) was 1.4, the “Ratio: LPS + ID/Ctrl” value (L19185 thioredoxin-dependent peroxide reductase 1) was 0.18 and the “Ratio: LPS + ID 27/control” value (L25931 lamin B receptor) was 0.7. The “Ratio: LPS + ID 27/control” value (L42243 interferon receptor 2) was 5.2, the “Ratio: LPS + ID 27/control” value (M23379 RAS p21 protein activator) was 2.8 and the “Ratio: LPS + ID 27/control” value (M32315 tumor necrosis factor receptor superfamily member 1B) was 0.4. For the same molecule, the “Ratio: LPS + ID 27/control” value (M54915 pim-1 oncogene) was 0.6, the “Ratio: LPS + ID/Ctrl” value (M54915 pim-1 oncogene) was 0.63 and the “Ratio: LPS + ID 27/control” value (M57230 interleukin 6 signal transducer) was 1.0. The “Ratio: LPS + ID/Ctrl” value (M95678 phospholipase C beta 2) was 2.38, the “Ratio: LPS + ID/Ctrl” value (NM_001148 ankyrin 2_neuronal) was 0.82 and the “Ratio: LPS + ID 27/control” value (NM_001663 ADP-ribosylation factor 6) was 1.7. The “Ratio: LPS + ID 27/control” value (NM_001940 dentatorubral-pallidoluysian atrophy) was 1.2, the “Ratio: LPS + ID 27/control” value (NM_002309 leukemia inhibitory factor) was 1.9 and the “Ratio: LPS + ID 27/control” value (NM_004862 LPS-induced TNF-alpha factor) was 1.1. For the same molecule, the “Ratio: LPS + ID 27/control” value (NM_006092 caspase recruitment domain 4) was 0.5, the “Ratio: LPS + ID 27/control” value (NM_006325 RAN member RAS oncogene family) was 1.4 and the “Ratio: LPS + ID 27/control” value (NM_013241 FH1/FH2 domain-containing protein) was 0.6. For the same molecule, the “Ratio: LPS + ID 27/control” value (NM_013400 replication initiation region protein) was 2.0, the “Ratio: LPS + ID 27/control” value (NM_016216 RNA lariat debranching enzyme) was 10.9 and the “Ratio: LPS + ID 27/control” value (NM_016237 anaphase-promoting complex subunit 5) was 0.9. For the same molecule, the “Ratio: LPS + ID/Ctrl” value (NM_016382 NK cell activation inducing ligand NAIL) was 0.81, the “Ratio: LPS + ID 27/control” value (U19796 melanoma-associated antigen) was 0.6 and the “Ratio: LPS + ID 27/control” value (U26648 syntaxin 5A) was 1.4. The “Ratio: LPS + ID 27/control” value (U34252 aldehyde dehydrogenase 9) was 1.2, the “Ratio: LPS + ID 27/control” value (U43083 guanine cription factor 1) was 1.6 and the “Ratio: LPS + ID/Ctrl” value (U52522 partner of RAC1) was 1.35. For the same molecule, the “Ratio: LPS + ID 27/control” value (U52960 SRB7 homolog) was 0.8, the “Ratio: LPS + ID 27/control” value (U60205 sterol-C4-methyl oxidase-like) was 0.8 and the “Ratio: LPS + ID 27/control” value (U78027 galactosidase_alpha) was 1.1. For the same molecule, the “Ratio: LPS + ID/Ctrl” value (U78166 Ric like) was 0.20, the “Ratio: LPS + ID 27/control” value (U78166 Ric-like expressed in neurons) was 0.2 and the “Ratio: LPS + ID 27/control” value (U91316 cytosolic acyl coenzyme A thioester hydrolase) was 1.4. The “Ratio: LPS + ID 27/control” value (U94831 transmembrane 9 superfamily member 1) was 1.5, the “Ratio: LPS + ID/Ctrl” value (X03066 MHC class II DO beta) was 4.90 and the “Ratio: LPS + ID/Ctrl” value (X06614 retinoic acid receptor_alpha) was 0.77. The “Ratio: LPS + ID/Ctrl” value (X07173 inter-alpha inhibitor H2) was 0.44, the “Ratio: LPS + ID 27/control” value (X13334 CD14 antigen) was 1.1 and the “Ratio: LPS + ID/Ctrl” value (X16940 smooth muscle enteric actin γ2) was 3.24. The “Ratio: LPS + ID 27/control” value (X51688 cyclin A2) was 1.0, the “Ratio: LPS + ID 27/control” value (X56777 zona pellucida glycoprotein 3A) was 1.4 and the “Ratio: LPS + ID 27/control” value (X70394 zinc finger protein 146) was 1.7. For the same molecule, the “Ratio: LPS + ID 27/control” value (X76104 death-associated protein kinase 1) was 1.8, the “Ratio: LPS + ID 27/control” value (X76785 integration site for Epstein-Barr virus) was 1.9 and the “Ratio: LPS + ID 27/control” value (X80692 mitogen-activated protein kinase 6) was 1.3. For the same molecule, the “Ratio: LPS + ID 27/control” value (X85750 monocyte to macrophage differentiation-associated) was 1.1, the “Ratio: LPS + ID 27/control” value (X92896 Unknown) was 1.5 and the “Ratio: LPS + ID 27/control” value (X92972 protein phosphatase 6 catalytic subunit) was 1.1. For the same molecule, the “Ratio: LPS + ID 27/control” value (Z99756 Unknown) was 14.0.
